Data from patent publication US8921367B2 (Amgen Inc., priority 2012, dated 2014).

Tests used:
[1] = tested on: histone H3, a proximal substrate of aurora-B; experiment: In vivo phosphorylation of histone H3
[2] = Ph I dose escalation: MTD and DLT determination; type: in vivo, human; settings: once daily oral, 4 days on/10 days off
Excerpt: The dose escalation part of the study was aimed at determining a maximum tolerated dose (MTD) and if necessary the MTD with prophylactic GCSF support (MTD-G), and evaluating the safety, tolerability, pharmacokinetics and pharmacodynamics of AMG 900 in subjects with advanced solid tumors.
A subsequent non-accelerated phase (SNAP) then commenced (≦50% dose escalations once the first grade 2 related toxicity occurred; ≦25% if a DLT occurs) in a standard 3+3 design at the dose level where DLT or possibly related grade 2 toxicity was observed. The percent of dose escalation depended upon toxicities observed in previous cohorts. Intra-subject dose escalation was not allowed. An MTD was determined without prophylactic GCSF support. If neutropenia (or neutropenia related toxicity) was dose limiting, then dose escalation proceeded with prophylactic GCSF support beginning at the dose level at which neutropenia (or neutropenia related toxicity) was dose limiting.

AML = experiment: Ph I AML study of oral AMG 900; type: in vivo, human
Excerpt: The data for both studies are as follows:

CA-125 = CA-125 in ovarian cancer patient of the Ph I trial; type: in vivo, human; settings: platinum-sensitive ovarian cancer patient; 16 mg once daily, 8 mg cycles 4-15, 12 mg at cycle 16; end of cycle 16
Protocol: Disease progression by appearance of new bone lesions in CRPC in the dose expansion phase were evaluated with bone scans. Bone scans were performed at baseline, 4 weeks after cycle 1 day 1, 8 weeks after cycle 1 day 1, and every 8 weeks thereafter until disease progression. Efficacy in ovarian cancer and CRPC were evaluated based on the Rustin criteria (1996) and PCWG2 guidelines, respectively. CA-125 in ovarian cancer and PSA in CRPC were collected every 4 weeks.

[3] = tested on: multiple tumor xenografts, including three MDR xenograft models resistant to paclitaxel or docetaxel; experiment: Growth of tumor xenografts; type: in vivo
advanced solid tumors = experiment: Ph I clinical dose escalation trial of oral AMG 900; tumor response by CT or MRI using RECIST criteria; type: in vivo, human
Excerpt: Some of the objectives for the study included (1) determination of the maximal tolerated dose (MTD) and if necessary, the MTD in conjunction with prophylactic amounts of granulocyte colony stimulating factor (GCSF); (2) to evaluate the PD effects of drug exposure on phospho-histone H3 (serine 10) proteins levels in tumor tissue; (3) to evaluate change in tumor volume by volumetric or MRI analysis; and (4) to evaluate tumor response assessed by CT or MRI using RECIST criteria. The clinical trial was conducted in accordance with the following design/protocol:
This is an open-label, sequential dose escalation study evaluating AMG 900 in subjects with advanced solid tumors. The study is being conducted in 2 parts: Part 1—Dose Escalation and Part 2—Dose Expansion. […] One cycle is defined as 14 days. Thus, 1 cycle=2 weeks (14 days) and DLT window=4 weeks (28 days).
In addition, treatment with proton pump inhibitors or H2 receptor antagonists was withheld at least 48 hours prior to the first dose of each treatment cycle until at least 1 hour after the fourth dose of a treatment cycle. Starting Dose:
In addition, treatment with proton pump inhibitors or H2 receptor antagonists were withheld at least 48 hours prior to the first dose of each treatment cycle until at least 1 hour after the fourth dose of a treatment cycle. One cycle was defined as 14 days. […] The investigator or sub-investigator performed a physical examination of each subject during clinic visits. A review of concomitant medications and an assessment of adverse events were performed at every visit.
Efficacy was assessed by standardized contrast-enhanced CT or MRI and evaluated according to RECIST criteria. RECIST 1.0 and RECIST 1.1 criteria is described in the Journal of National Cancer Institute, Vol. 92, No. 3:205-216, 2000 and European Journal of Cancer 45:228-247, 2009, respectively, both disclosures of which are hereby incorporated herein by reference in their entireties. CT or MRI scans with contrast were acquired at baseline, 4 weeks after cycle 1 day 1, 8 weeks after cycle 1 day 1, and every 8 weeks thereafter until disease progression. Scans were acquired with slice thickness of about 5 mm or less. Baseline imaging studies were performed within 2 weeks prior to study day 1, and where practicable, they were performed as close to the day of enrollment as possible.

solid tumors = settings: days 1 and 8 or days 1, 2 and 3 of 3-week cycle, cited from earlier work
[4] = tested on: advanced solid malignancies; settings: cited from earlier work
[5] = tested on: advanced refractory solid tumors; settings: cited from earlier work
advanced solid tumor = settings: daily dosing 5 or 10 consecutive days in 3-week cycles; cited from earlier work

With `Cc1csc(-c2nnc(Nc3ccc(Oc4ncccc4-c4ccnc(N)n4)cc3)c3ccccc23)c1` [AMG 900, N-(4-((3-(2-amino-4-pyrimidinyl)-2-pyridinyl)oxy)phenyl)-4-(4-methyl-2-thienyl)-1-phthalazinamine] the “phosphorylation of histone H3” value [1] was “blocks the phosphorylation”, the “doses at which MTD's and DLT's were observed” value [2] was “greater than 8 mg” and the “Observed Response to AMG 900” value (AML; Patient No. 14, 80 mg once per day oral, 4 days on/10 days off) was “Active”. The “Observed Response to AMG 900” value (AML; Patient No. 15, 80 mg once per day oral, 4 days on/10 days off) was “Active”, the “Observed Response to AMG 900” value (AML; Patient No. 16, 30 mg once per day oral, 7 days on/7 days off) was “Active” and the “decrease in CA-125” value (CA-125) was 45%. For the same compound, the “growth of tumor xenografts” value [3] was “inhibits the growth”, the “Observed Response to AMG 900” value (advanced solid tumors; Patient No. 1, 1 mg once per day oral, 4 days on/10 days off, cholangiocarcinoma, at week 24) was “SD at week 24” and the “Observed Response to AMG 900” value (advanced solid tumors; Patient No. 2, 8 mg once per day oral, 4 days on/10 days off, prostate, at week 8) was “SD at week 8”. For the same compound, the “Observed Response to AMG 900” value (advanced solid tumors; Patient No. 3, 16 mg once per day oral, 4 days on/10 days off, ovarian, at week 40) was “SD at week 40”, the “Observed Response to AMG 900” value (advanced solid tumors; Patient No. 4, 16 mg once per day oral, 4 days on/10 days off, breast, at week 4) was “SD at week 4” and the “Observed Response to AMG 900” value (advanced solid tumors; Patient No. 5, 24 mg once per day oral, 4 days on/10 days off, colon, at week 8) was “SD at week 8”. The “Observed Response to AMG 900” value (advanced solid tumors; Patient No. 6, 25 mg once per day oral, 4 days on/10 days off, rectal, at week 56) was “PD at week 56”, the “Observed Response to AMG 900” value (advanced solid tumors; Patient No. 7, 24 mg once per day oral, 4 days on/10 days off, Medullary thyroid, at week 120) was “SD at week 120” and the “Observed Response to AMG 900” value (advanced solid tumors; Patient No. 8, 30 mg + GCSF once per day oral, 4 days on/10 days off, endometrial, at Week 64) was “PR at Week 64;”. The “Observed Response to AMG 900” value (advanced solid tumors; Patient No. 8, 30 mg + GCSF once per day oral, 4 days on/10 days off, endometrial, at week 72) was “SD at week 72”, the “Observed Response to AMG 900” value (advanced solid tumors; Patient No. 9, 30 mg + GCSF once per day oral, 4 days on/10 days off, chondrosarcoma, at week 40) was “SD at week 40” and the “Observed Response to AMG 900” value (advanced solid tumors; Patient No. 10, 40 mg + GCSF once per day oral, 4 days on/10 days off, colon, at week 32) was “SD at week 32”. The “Observed Response to AMG 900” value (advanced solid tumors; Patient No. 11, 40 mg + GCSF once per day oral, 4 days on/10 days off, Non-small cell lung, at week 32) was “SD at week 32”, the “Observed Response to AMG 900” value (advanced solid tumors; Patient No. 12, 50 mg + GCSF once per day oral, 4 days on/10 days off, thyroid, at week 32) was “SD at week 32” and the “Observed Response to AMG 900” value (advanced solid tumors; Patient No. 13, 40 mg + GCSF once per day oral, 4 days on/10 days off, prostate, at week 8) was “SD at week 8”. The “lowest once daily dose at which anti cancer activity was observed” value (advanced solid tumors; once daily oral, 4 days on/10 days off) was 8 mg, the “decrease of long axis diameter of tumor versus base line diameter on day 1” value (advanced solid tumors; patient with stage IV solid endometrial tumor, 30 mg + GCSF once daily, 4 days on/10 days off, week 24, CT, RECIST 1.0) was “approximately 50%” and the “reduction of short axis diameter of tumor versus base line diameter on day 1” value (advanced solid tumors; patient with stage IV-B solid ovarian tumor, 30 mg once daily, 4 days on/10 days off, two cycles, week 4, RECIST 1.1) was “about 30%”. For the same compound, the “decrease in SLD (sum of long axis diameters) on CT” value (advanced solid tumors; platinum-sensitive ovarian cancer patient, 16 mg once daily, 8 mg cycles 4-15, 12 mg at cycle 16, 4-day on-10 day off, end of cycle 16) was 16% and the “reduction of short axis diameter of tumor” value (advanced solid tumors; same endometrial solid tumor, 30 mg once daily, week 16 after eight (8) cycles, CT, RECIST 1.1) was “up to 40%”.

In the case of `Cc1cc(Nc2ncc(F)c(NC3C4C=CC(C4)C3C(N)=O)n2)ccc1N1CCN(C)CC1` (stereo not drawn) [AS703569], the “impact on the patient's solid tumors” value (solid tumors) is listed as “no positive impact(s)” and the tolerability (solid tumors; various dosages) is listed as “tolerable”.

In the case of `CCN(CCCOc1ccc2c(Nc3cc(CC(=O)Nc4cccc(F)c4)n[nH]3)ncnc2c1)CCOP(=O)(O)O` [AZD1152], the “dosage amount safely administered” value ([4]; 2 hour IV infusion every 7 days) is listed as ≤ 450 mg and the disease response ([4]; patients with rapidly progressive diseases, within 450 mg dose) is listed as “significantly stabilize disease”.

In the case of `CO[C@@H](C(=O)N1Cc2n[nH]c(NC(=O)c3ccc(N4CCN(C)CC4)cc3)c2C1)c1ccccc1` [Danusertib], the “amount that can be safely administered” value ([5]; over 24 hours in 14 day cycles without GCSF) is listed as ≤ 500 mg/m^2 and the tumor response ([5]; within dose of 500 mg/m^2, small cell lung carcinoma, prolonged disease stabilization in other solid tumors) is listed as “prolonged objective response”.

For `CC(=O)NCC(=O)N1[C@@H]2CC[C@H]1c1ccc(Nc3ncc(C(F)(F)F)c(NC4CCC4)n3)cc12` [PF-03814735], the “objective response on the tumors” value (advanced solid tumor) is listed as “NO objective response”.
